Data taken from US12247224B2, “Organoids for drug screening and personalized medicine” (SENTING, LLC, priority 2014, dated 2025).

Experiments:
Format in all cases: cell-based, human
[1] = system: tumor-organoids UHN6, UHN17, UHN3, UHN5 and UHN15 (primary PDAC); test: MTT assay of tumor-organoid cultures treated with drugs
Description: (§1) (A) Time lapse imaging sequence of UHN6 derived organoids. (B) H&E, phase and immunofluorescence images for KRT19 (bright) and DAPI (dark) of images of tumor-organoids and their matched primary tumors. ((C) H&E images showing maintenance of inter-organoid heterogeneity in histoarchitecture representing variation in primary patient tumor. (D) Normalized MTT assay readings of organoid cultures treated with gemcitabine for 4 days. E) Normalized MTT assay readings of organoid cultures with gemcitabine and epigenetic inhibitor of the H3K27me3 writer EZH2 (UNC1999). (F) Normalized MTT reading of tumor-organoids treated with UNC199 alone. See online Methods for details. (G) Immunostaining for H3K27me3 (bright) in two primary patient tumors (top panel) and corresponding tumor-organoids (bottom panel). (H) Basal 02 consumption as measured by Seahorse™ flux analyzer with and without UNC1999 treatment. For MTT and oxygen consumptions experiments, data represent mean+/−S.D. P value (t-test, two tailed): N.S-, not significant; *−p=0.01-0.05; **−p=0.001-0.01; ***, p=<0.001 (n=3). All scale bars equal to 50 μm.
(§2) For MTT and oxygen consumptions experiments, data represent mean+/− S.D. P value (t-test, two tailed): N.S-, not significant; *−p=0.01-0.05; **−p=0.001-0.01; ***, p=<0.001 (n=3). (B) Immunostaining for H3K27me3 in control (DMSO) or UNC 1999-treated tumor-organoids. Scale bars, 50 μm. (C) Tumor-organoids (top panel) and primary tumors (bottom panel) derived from tumor UHN3, UHN 5 and UHN15, show consistent patient-specific variation in staining for H3K27me3. Scale bars, 50 μm.
For pancreas progenitor organoid culture, T9 cells were resuspended and plated in the PTOM (Pancreatic Progenitor and Tumor Organoid Media) containing DMEM with factors including serum-free supplements, FGFs, and insulin. The cells were plated on a bed of Matrigel as described before 3. At day 8 in 3D culture, replace culture medium with fresh POMM (Pancreatic Organoid Maintenance Media) (PTOM media without FGFs) with 5% Matrigel every 4 days. PODM I (Pancreatic Organoid Differentiation Media) contains DMEM with B27, 2-phospho ascorbic acid, FGF, EGF, TGF beta inhibitors. PODM II contains DMEM with B27, 2-phospho ascorbic acid, FGF, EGF. Fresh tissues of primary tumors from patients were washed twice with DMEM, digested with collagenase (Roche) and resuspended in PTOM. Tumor cells were then seeded in 3D culture chambers as described above. Culture media were replaced every 4 days. For serial passaging of organoids, day 16 organoids were treated with collagenase for 2 hours then further dissociated with trypsin for 10-30 minutes. Cells were collected and re-seeded in 3D culture following protocols as described above. […]
We analyzed five organoid cultures, UHN6, UHN17, UHN3, UHN5 and UHN15. […]

[2] = system: progenitor-organoids; test: Toxicity of epigenetic inhibitors to normal cells in progenitor-organoids; conditions: compared with JQ1, LAQ824, SGC0946, data not shown
Protocol: For pancreas progenitor organoid culture, T9 cells were resuspended and plated in the PTOM (Pancreatic Progenitor and Tumor Organoid Media) containing DMEM with factors including serum-free supplements, FGFs, and insulin. The cells were plated on a bed of Matrigel as described before 3. At day 8 in 3D culture, replace culture medium with fresh POMM (Pancreatic Organoid Maintenance Media) (PTOM media without FGFs) with 5% Matrigel every 4 days. PODM I (Pancreatic Organoid Differentiation Media) contains DMEM with B27, 2-phospho ascorbic acid, FGF, EGF, TGF beta inhibitors. PODM II contains DMEM with B27, 2-phospho ascorbic acid, FGF, EGF. Fresh tissues of primary tumors from patients were washed twice with DMEM, digested with collagenase (Roche) and resuspended in PTOM. Tumor cells were then seeded in 3D culture chambers as described above. Culture media were replaced every 4 days. For serial passaging of organoids, day 16 organoids were treated with collagenase for 2 hours then further dissociated with trypsin for 10-30 minutes. Cells were collected and re-seeded in 3D culture following protocols as described above. MCF-10A cells were obtained from ATCC. Gene expression data will be uploaded into NCBI's Gene Expression Omnibus (GEO). […]

[3] = system: H3K27me3 mark in UHN17 organoids; test: Immunostaining for H3K27me3 in control (DMSO) or UNC1999-treated tumor-organoids; conditions: at concentrations with significant growth-inhibitory effects
Description: as §2
Inhibitors of BET (JQ1), histone deacetylase (LAQ824), DOT1L (SGC0946), G9a (A366) and EZH2 (UNC1999) were tested in progenitor-organoids to investigate their toxicities to normal cells. […] A366 and UNC1999 were administered to organoid cultures in combination with the current standard of care, gemcitabine (See FIG. 6 legend and FIG. 12). Organoids were not sensitive to G9a inhibition (FIG. 12A).

[4] = system: tumor-organoids UHN17, UHN3; test: Basal O2 consumption measured by Seahorse flux analyzer with and without UNC1999
Description: as §1
Recent studies reveal a relationship between oxygenation and regulation of H3K27me3 epigenetic mark^28,29. […] We measured basal respiration rates to investigate if tumor-organoids show differences in oxygen consumption. […]

SMILES | growth inhibition in MTT assays ([1]; gemcitabine for 4 days, all five organoid cultures UHN6, UHN17, UHN3, UHN5, UHN15) [%] | sensitivity of organoids to G9a inhibition (MTT) ([1]; in combination with gemcitabine, tumor-organoids) | toxicity to normal cells [2] | suppression of proliferation by EZH2 inhibition alone (MTT) ([1]; UNC1999 alone, UHN17, UHN3, UHN5) | proliferation upon EZH2 inhibition compared to gemcitabine treatment alone (MTT) ([1]; in combination with gemcitabine, UHN17, UHN3, UHN5, UHN15) | H3K27me3 mark after treatment [3] | basal oxygen consumption after EZH2 inhibition [4]
Nc1ccn([C@@H]2O[C@H](CO)[C@@H](O)C2(F)F)c(=O)n1 [gemcitabine] | 30 | – | – | – | – | – | –
COc1cc2c(cc1OCCCN1CCCC1)N=C(N)C21CCC1 [A366] | – | not sensitive | least toxic | – | – | – | –
CCCc1cc(C)[nH]c(=O)c1CNC(=O)c1cc(-c2ccc(N3CCN(C(C)C)CC3)nc2)cc2c1cnn2C(C)C [UNC1999] | – | – | least toxic | effective in suppressing proliferation | dose-dependent decreases in proliferation | suppressed the H3K27me3 mark | suppressed
